# Test results as given in the kinase profiling compilation of Christmann-Franck et al. (2016).
# Where “and” joins values, the source holds several entries; their conditions need not be identical. Equal values may be shown once.
# Legend:
# Experiment in all cases: radiometric filter-binding kinase assay, Kinase HotSpot
# Conditions in all cases: compound 0.5 µM; ATP 10 µM
# GRK7 (human) = GRK7 (human) (UniProt Q8WTQ7)
# HIPK2 (human) = HIPK2 (human) (UniProt Q9H2X6)
# RPS6KB2 (human) = RPS6KB2 (human) (UniProt Q9UBS0)
# RAF1 (human) = RAF1 (human) (UniProt P04049)
# MARK2 (human) = MARK2 (human) (UniProt Q7KZI7)
# FLT1 (human) = FLT1 (human) (UniProt P17948)
# STK17A (human) = STK17A (human) (UniProt Q9UEE5)
# PHKG2 (human) = PHKG2 (human) (UniProt P15735)
# DAPK1 (human) = DAPK1 (human) (UniProt P53355)
# MYLK (human) = MYLK (human) (UniProt Q15746)
# IRAK4 (human) = IRAK4 (human) (UniProt Q9NWZ3)
# DYRK2 (human) = DYRK2 (human) (UniProt Q92630)
# DDR2 (human) = DDR2 (human) (UniProt Q16832)
# CSNK2A1 (human) = CSNK2A1 (human) (UniProt P68400)
# STK10 (human) = STK10 (human) (UniProt O94804)
# JAK3 JH1 JH2 (human) = JAK3 JH1 JH2 (human) (UniProt P52333)
# JAK2 JH1 JH2 (human) = JAK2 JH1 JH2 (human) (UniProt O60674)
# LYN (human) = LYN (human) (UniProt P07948)
# TXK (human) = TXK (human) (UniProt P42681)
# NEK7 (human) = NEK7 (human) (UniProt Q8TDX7)
# TBK1 (human) = TBK1 (human) (UniProt Q9UHD2)
# STK4 (human) = STK4 (human) (UniProt Q13043)
# ABL1 (human) = ABL1 (human) (UniProt P00519)
# DYRK1B (human) = DYRK1B (human) (UniProt Q9Y463)
# SGK2 (human) = SGK2 (human) (UniProt Q9HBY8)
# AURKC (human) = AURKC (human) (UniProt Q9UQB9)
# PRKCA (human) = PRKCA (human) (UniProt P17252)
# RIPK2 (human) = RIPK2 (human) (UniProt O43353)
# MST4 (human) = MST4 (human) (UniProt Q9P289)
# CSNK1D (human) = CSNK1D (human) (UniProt P48730)
# PLK1 (human) = PLK1 (human) (UniProt P53350)
# CDC42BPB (human) = CDC42BPB (human) (UniProt Q9Y5S2)
# PRKD3 (human) = PRKD3 (human) (UniProt O94806)
# ROS1 (human) = ROS1 (human) (UniProt P08922)
# CSF1R (human) = CSF1R (human) (UniProt P07333)
# TAOK1 (human) = TAOK1 (human) (UniProt Q7L7X3)
# ACVRL1 (human) = ACVRL1 (human) (UniProt P37023)
# PRKG1 (human) = PRKG1 (human) (UniProt Q13976)
# EPHA1 (human) = EPHA1 (human) (UniProt P21709)
# SRPK2 (human) = SRPK2 (human) (UniProt P78362)
# CAMK2G (human) = CAMK2G (human) (UniProt Q13555)
# CDK9 CCNK (human) = CDK9 CCNK (human) (UniProt O75909+P50750)
# IRAK4 (human), sequence (Q9NWZ3 whole entry, looked up): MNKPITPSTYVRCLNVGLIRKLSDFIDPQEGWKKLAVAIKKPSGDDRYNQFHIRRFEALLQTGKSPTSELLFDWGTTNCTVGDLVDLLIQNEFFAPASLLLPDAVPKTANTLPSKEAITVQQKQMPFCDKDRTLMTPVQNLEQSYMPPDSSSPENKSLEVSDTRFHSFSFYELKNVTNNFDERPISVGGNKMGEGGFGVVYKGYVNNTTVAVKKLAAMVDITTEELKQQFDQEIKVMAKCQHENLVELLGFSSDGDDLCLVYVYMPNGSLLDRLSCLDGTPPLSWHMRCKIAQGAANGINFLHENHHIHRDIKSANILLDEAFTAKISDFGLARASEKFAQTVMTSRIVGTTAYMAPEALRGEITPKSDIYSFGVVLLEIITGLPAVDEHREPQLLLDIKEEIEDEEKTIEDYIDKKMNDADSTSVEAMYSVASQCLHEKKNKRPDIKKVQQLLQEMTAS
# FLT1 (human), sequence (P17948 whole entry, looked up): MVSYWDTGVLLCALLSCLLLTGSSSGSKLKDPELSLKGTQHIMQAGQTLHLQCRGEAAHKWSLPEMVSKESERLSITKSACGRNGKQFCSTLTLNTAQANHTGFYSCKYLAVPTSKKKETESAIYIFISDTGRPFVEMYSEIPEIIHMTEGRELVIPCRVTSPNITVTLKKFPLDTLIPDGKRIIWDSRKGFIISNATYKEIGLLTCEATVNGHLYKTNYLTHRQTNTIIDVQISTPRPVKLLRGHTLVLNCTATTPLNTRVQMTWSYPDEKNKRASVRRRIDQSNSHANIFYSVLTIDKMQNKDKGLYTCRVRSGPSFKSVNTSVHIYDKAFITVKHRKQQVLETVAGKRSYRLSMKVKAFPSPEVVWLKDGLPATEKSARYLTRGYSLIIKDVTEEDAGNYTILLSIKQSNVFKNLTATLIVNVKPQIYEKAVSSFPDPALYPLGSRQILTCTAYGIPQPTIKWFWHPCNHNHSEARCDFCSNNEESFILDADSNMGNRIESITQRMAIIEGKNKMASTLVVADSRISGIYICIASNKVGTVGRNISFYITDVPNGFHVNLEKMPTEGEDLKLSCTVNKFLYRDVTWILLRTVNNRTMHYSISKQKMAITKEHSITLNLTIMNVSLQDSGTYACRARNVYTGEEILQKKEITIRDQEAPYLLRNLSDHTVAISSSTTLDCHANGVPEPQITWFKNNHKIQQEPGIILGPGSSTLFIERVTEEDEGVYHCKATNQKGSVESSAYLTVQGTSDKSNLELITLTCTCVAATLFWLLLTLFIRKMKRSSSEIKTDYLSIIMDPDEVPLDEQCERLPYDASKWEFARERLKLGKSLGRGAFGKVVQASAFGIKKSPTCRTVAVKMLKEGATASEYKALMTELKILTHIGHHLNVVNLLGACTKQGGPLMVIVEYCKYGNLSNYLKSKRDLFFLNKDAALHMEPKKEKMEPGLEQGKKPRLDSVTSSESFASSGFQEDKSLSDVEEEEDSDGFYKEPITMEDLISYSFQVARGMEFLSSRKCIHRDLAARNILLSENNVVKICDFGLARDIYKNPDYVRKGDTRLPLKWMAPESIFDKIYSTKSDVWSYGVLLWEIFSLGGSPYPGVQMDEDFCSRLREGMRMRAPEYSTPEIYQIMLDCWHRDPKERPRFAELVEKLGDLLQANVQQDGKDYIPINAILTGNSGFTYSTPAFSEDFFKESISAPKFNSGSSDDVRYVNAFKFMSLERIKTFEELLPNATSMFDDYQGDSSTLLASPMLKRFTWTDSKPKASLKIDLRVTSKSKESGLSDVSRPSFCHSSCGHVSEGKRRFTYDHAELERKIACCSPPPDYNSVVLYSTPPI
# CAMK2G (human), sequence (Q13555 whole entry, looked up): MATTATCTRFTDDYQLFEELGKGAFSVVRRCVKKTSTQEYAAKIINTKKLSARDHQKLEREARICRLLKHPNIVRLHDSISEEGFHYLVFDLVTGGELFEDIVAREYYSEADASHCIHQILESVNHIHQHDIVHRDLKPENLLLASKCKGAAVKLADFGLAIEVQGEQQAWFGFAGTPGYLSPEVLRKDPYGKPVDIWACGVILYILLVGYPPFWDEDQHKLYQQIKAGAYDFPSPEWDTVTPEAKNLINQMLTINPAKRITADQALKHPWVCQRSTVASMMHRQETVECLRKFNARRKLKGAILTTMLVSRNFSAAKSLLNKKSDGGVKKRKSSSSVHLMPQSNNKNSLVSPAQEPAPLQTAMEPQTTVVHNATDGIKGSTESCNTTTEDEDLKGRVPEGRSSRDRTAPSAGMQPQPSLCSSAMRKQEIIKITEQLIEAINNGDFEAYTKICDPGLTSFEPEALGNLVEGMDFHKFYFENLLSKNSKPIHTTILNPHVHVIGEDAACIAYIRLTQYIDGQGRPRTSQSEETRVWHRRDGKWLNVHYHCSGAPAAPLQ
# DAPK1 (human), sequence (P53355 whole entry, looked up): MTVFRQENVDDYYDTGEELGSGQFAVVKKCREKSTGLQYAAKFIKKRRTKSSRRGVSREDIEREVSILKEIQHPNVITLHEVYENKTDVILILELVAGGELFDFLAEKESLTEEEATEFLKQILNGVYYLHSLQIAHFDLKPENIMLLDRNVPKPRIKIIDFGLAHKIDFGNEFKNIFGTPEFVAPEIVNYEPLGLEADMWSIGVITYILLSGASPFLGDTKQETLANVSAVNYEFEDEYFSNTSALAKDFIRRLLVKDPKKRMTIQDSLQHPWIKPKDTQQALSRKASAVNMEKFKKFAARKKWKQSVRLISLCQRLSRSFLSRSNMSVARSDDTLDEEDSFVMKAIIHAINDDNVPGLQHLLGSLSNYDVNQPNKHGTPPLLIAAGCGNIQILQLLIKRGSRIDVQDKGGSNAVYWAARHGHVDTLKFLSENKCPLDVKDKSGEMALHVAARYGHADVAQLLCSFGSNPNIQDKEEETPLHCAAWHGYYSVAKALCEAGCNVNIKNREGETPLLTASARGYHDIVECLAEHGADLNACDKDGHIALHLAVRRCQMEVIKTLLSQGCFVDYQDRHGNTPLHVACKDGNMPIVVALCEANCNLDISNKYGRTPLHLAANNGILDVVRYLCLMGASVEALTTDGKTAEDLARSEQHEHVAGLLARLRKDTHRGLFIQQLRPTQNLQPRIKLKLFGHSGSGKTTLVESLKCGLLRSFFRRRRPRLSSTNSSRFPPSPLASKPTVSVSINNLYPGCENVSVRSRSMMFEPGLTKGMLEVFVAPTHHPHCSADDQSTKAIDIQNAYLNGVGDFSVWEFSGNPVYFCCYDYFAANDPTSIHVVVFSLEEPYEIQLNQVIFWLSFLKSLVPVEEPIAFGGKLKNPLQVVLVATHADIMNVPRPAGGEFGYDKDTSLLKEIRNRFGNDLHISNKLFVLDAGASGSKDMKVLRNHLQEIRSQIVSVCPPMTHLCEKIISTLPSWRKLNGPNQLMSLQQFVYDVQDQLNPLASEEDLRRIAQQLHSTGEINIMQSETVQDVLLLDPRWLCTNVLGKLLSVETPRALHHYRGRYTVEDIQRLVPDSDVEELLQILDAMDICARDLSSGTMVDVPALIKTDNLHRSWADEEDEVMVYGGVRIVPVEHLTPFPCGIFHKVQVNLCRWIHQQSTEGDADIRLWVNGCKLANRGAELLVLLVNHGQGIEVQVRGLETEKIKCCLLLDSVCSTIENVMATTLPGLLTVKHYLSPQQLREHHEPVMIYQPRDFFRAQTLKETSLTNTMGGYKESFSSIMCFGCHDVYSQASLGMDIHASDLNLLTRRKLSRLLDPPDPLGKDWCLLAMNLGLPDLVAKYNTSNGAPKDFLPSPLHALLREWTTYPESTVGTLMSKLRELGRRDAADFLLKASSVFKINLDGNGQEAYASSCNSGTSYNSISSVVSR
# LYN (human), sequence (P07948 whole entry, looked up): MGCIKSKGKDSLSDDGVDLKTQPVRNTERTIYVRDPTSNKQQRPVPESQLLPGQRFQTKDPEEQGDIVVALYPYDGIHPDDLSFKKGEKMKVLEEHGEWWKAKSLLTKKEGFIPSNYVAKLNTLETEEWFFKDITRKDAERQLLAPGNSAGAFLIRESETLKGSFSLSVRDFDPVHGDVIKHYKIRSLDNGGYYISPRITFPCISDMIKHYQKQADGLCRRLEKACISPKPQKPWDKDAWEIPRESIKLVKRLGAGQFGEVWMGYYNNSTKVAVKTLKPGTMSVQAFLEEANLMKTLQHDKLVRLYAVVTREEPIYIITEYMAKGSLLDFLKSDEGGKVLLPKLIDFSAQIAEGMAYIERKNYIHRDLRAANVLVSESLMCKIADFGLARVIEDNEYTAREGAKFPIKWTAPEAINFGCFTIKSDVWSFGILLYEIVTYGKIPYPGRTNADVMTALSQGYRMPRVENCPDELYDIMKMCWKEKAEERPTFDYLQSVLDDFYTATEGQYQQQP
# GRK7 (human), sequence (Q8WTQ7 whole entry, looked up): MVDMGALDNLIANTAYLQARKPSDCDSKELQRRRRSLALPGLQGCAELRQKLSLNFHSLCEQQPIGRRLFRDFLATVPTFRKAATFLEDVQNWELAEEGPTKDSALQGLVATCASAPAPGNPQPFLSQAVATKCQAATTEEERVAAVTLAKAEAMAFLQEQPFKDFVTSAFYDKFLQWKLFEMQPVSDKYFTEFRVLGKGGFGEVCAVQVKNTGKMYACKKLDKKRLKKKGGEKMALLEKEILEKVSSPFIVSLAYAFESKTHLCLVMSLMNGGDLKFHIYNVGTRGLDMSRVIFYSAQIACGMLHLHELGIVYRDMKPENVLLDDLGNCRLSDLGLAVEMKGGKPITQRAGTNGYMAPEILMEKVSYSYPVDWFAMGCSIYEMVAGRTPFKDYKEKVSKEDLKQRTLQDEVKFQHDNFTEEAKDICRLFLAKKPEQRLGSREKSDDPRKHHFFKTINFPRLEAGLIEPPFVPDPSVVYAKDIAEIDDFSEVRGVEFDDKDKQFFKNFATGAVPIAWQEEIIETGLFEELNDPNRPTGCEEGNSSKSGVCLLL
compound,measurement,setting,value
Cn1cnc2cc3c(Nc4cccc(Br)c4)ncnc3cc21,residual activity,GRK7 (human),106%
same,residual activity,HIPK2 (human),106%
same,residual activity,RPS6KB2 (human),96.8%
same,residual activity,RAF1 (human),98.6%
same,residual activity,MARK2 (human),96.6%
same,residual activity,FLT1 (human),77.4%
same,residual activity,STK17A (human),82.5%
same,residual activity,PHKG2 (human),103%
same,residual activity,DAPK1 (human),87.2%
same,residual activity,MYLK (human),83.3%
same,residual activity,IRAK4 (human),89.1%
same,residual activity,DYRK2 (human),95.5%
same,residual activity,DDR2 (human),102%
same,residual activity,CSNK2A1 (human),99%
same,residual activity,STK10 (human),35.8%
same,residual activity,JAK3 JH1 JH2 (human),106%
same,residual activity,JAK2 JH1 JH2 (human),103%
same,residual activity,LYN (human),52.4% and 75.8%
same,residual activity,TXK (human),86.7%
same,residual activity,NEK7 (human),99.4%
same,residual activity,TBK1 (human),87.7%
same,residual activity,STK4 (human),94.2%
same,residual activity,ABL1 (human),32.6%
same,residual activity,DYRK1B (human),98.1%
same,residual activity,SGK2 (human),104%
same,residual activity,AURKC (human),96.5%
same,residual activity,PRKCA (human),79%
same,residual activity,RIPK2 (human),35.6%
same,residual activity,MST4 (human),94.3%
same,residual activity,CSNK1D (human),93.9%
same,residual activity,PLK1 (human),97.6%
same,residual activity,CDC42BPB (human),104%
same,residual activity,PRKD3 (human),93.1%
same,residual activity,ROS1 (human),99.9%
same,residual activity,CSF1R (human),94.4%
same,residual activity,TAOK1 (human),92.4%
same,residual activity,ACVRL1 (human),102%
same,residual activity,PRKG1 (human),97.8% and 98%
same,residual activity,EPHA1 (human),84.4%
same,residual activity,SRPK2 (human),97.1%
same,residual activity,CAMK2G (human),104%
same,residual activity,CDK9 CCNK (human),100%
Cc1nc2cc3nc(-c4cccs4)cnc3cc2n1C,residual activity,GRK7 (human),96.6%
same,residual activity,HIPK2 (human),107%
same,residual activity,RPS6KB2 (human),98%
same,residual activity,RAF1 (human),104%
same,residual activity,MARK2 (human),81.4%
same,residual activity,FLT1 (human),93.6%
same,residual activity,STK17A (human),80.5%
same,residual activity,PHKG2 (human),102%
same,residual activity,DAPK1 (human),99.5%
same,residual activity,MYLK (human),97%
same,residual activity,IRAK4 (human),201%
same,residual activity,DYRK2 (human),104%
same,residual activity,DDR2 (human),108%
same,residual activity,CSNK2A1 (human),101%
same,residual activity,STK10 (human),94.7%
same,residual activity,JAK3 JH1 JH2 (human),107%
same,residual activity,JAK2 JH1 JH2 (human),106%
same,residual activity,LYN (human),117% and 97.8%
same,residual activity,TXK (human),102%
same,residual activity,NEK7 (human),86.5%
same,residual activity,TBK1 (human),93%
same,residual activity,STK4 (human),97.4%
same,residual activity,ABL1 (human),80.4%
same,residual activity,DYRK1B (human),102%
same,residual activity,SGK2 (human),115%
same,residual activity,AURKC (human),93.3%
same,residual activity,PRKCA (human),74.7%
same,residual activity,RIPK2 (human),89.1%
same,residual activity,MST4 (human),99.3%
same,residual activity,CSNK1D (human),95.9%
same,residual activity,PLK1 (human),109%
same,residual activity,CDC42BPB (human),100%
same,residual activity,PRKD3 (human),97.1%
same,residual activity,ROS1 (human),97.9%
same,residual activity,CSF1R (human),63.5%
same,residual activity,TAOK1 (human),110%
same,residual activity,ACVRL1 (human),109%
same,residual activity,PRKG1 (human),98.5% and 99.7%
same,residual activity,EPHA1 (human),87.1%
same,residual activity,SRPK2 (human),104%
same,residual activity,CAMK2G (human),101%
same,residual activity,CDK9 CCNK (human),110%
O=C(CCCc1ccc(-c2ccccc2F)cc1)Nc1ccc(O)cc1,residual activity,GRK7 (human),109%
same,residual activity,HIPK2 (human),112%
same,residual activity,RPS6KB2 (human),104%
same,residual activity,RAF1 (human),102%
same,residual activity,MARK2 (human),91.5%
same,residual activity,FLT1 (human),93.1%
same,residual activity,STK17A (human),101%
same,residual activity,PHKG2 (human),102%
same,residual activity,DAPK1 (human),110%
same,residual activity,MYLK (human),98.6%
same,residual activity,IRAK4 (human),86.3%
same,residual activity,DYRK2 (human),91.8%
same,residual activity,DDR2 (human),98.1%
same,residual activity,CSNK2A1 (human),89.4%
same,residual activity,STK10 (human),95.3%
same,residual activity,JAK3 JH1 JH2 (human),92.1%
same,residual activity,JAK2 JH1 JH2 (human),98.5%
same,residual activity,LYN (human),102% and 87.7%
same,residual activity,TXK (human),97.7%
same,residual activity,NEK7 (human),97.3%
same,residual activity,TBK1 (human),98.2%
same,residual activity,STK4 (human),95%
same,residual activity,ABL1 (human),101%
same,residual activity,DYRK1B (human),108%
same,residual activity,SGK2 (human),101%
same,residual activity,AURKC (human),95.4%
same,residual activity,PRKCA (human),100%
same,residual activity,RIPK2 (human),84.5%
same,residual activity,MST4 (human),91.5%
same,residual activity,CSNK1D (human),102%
same,residual activity,PLK1 (human),95.5%
same,residual activity,CDC42BPB (human),109%
same,residual activity,PRKD3 (human),96.9%
same,residual activity,ROS1 (human),98.4%
same,residual activity,CSF1R (human),104%
same,residual activity,TAOK1 (human),91.4%
same,residual activity,ACVRL1 (human),101%
same,residual activity,PRKG1 (human),95.5% and 99.9%
same,residual activity,EPHA1 (human),117%
same,residual activity,SRPK2 (human),94.3%
same,residual activity,CAMK2G (human),109%
same,residual activity,CDK9 CCNK (human),96.7%
O=C(Nc1cccc(Nc2cc(Nc3cccc(C(F)(F)F)c3)ncn2)c1)C1CC1,residual activity,GRK7 (human),99%
same,residual activity,HIPK2 (human),107%
same,residual activity,RPS6KB2 (human),103%
same,residual activity,RAF1 (human),98.4%
same,residual activity,MARK2 (human),101%
same,residual activity,FLT1 (human),99.4%
same,residual activity,STK17A (human),99.2%
same,residual activity,PHKG2 (human),101%
same,residual activity,DAPK1 (human),94.7%
same,residual activity,MYLK (human),99%
same,residual activity,IRAK4 (human),104%
same,residual activity,DYRK2 (human),99.9%
same,residual activity,DDR2 (human),106%
same,residual activity,CSNK2A1 (human),92.6%
same,residual activity,STK10 (human),95.7%
same,residual activity,JAK3 JH1 JH2 (human),106%
same,residual activity,JAK2 JH1 JH2 (human),99.5%
same,residual activity,LYN (human),102% and 99.1%
same,residual activity,TXK (human),97.1%
same,residual activity,NEK7 (human),97.8%
same,residual activity,TBK1 (human),99%
same,residual activity,STK4 (human),99%
same,residual activity,ABL1 (human),103%
same,residual activity,DYRK1B (human),105%
same,residual activity,SGK2 (human),99%
same,residual activity,AURKC (human),104%
same,residual activity,PRKCA (human),101%
same,residual activity,RIPK2 (human),80.8%
same,residual activity,MST4 (human),98.9%
same,residual activity,CSNK1D (human),98.9%
same,residual activity,PLK1 (human),98.6%
same,residual activity,CDC42BPB (human),97.4%
same,residual activity,PRKD3 (human),96.9%
same,residual activity,ROS1 (human),93.5%
same,residual activity,CSF1R (human),99.9%
same,residual activity,TAOK1 (human),100%
same,residual activity,ACVRL1 (human),114%
same,residual activity,PRKG1 (human),90.6% and 96.4%
same,residual activity,EPHA1 (human),92.9%
same,residual activity,SRPK2 (human),92%
same,residual activity,CAMK2G (human),96.1%
same,residual activity,CDK9 CCNK (human),102%
